Assays:
Format in all cases: in vivo
Kochia (Kochia scoparia) [1] = assay: Test A preemergence; details: Bassia scoparia, pre-emergence, 240 h
Summary of the method: (§1)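 Compounds were formulated in a non-phytotoxic solvent mixture with surfactant and applied as a preemergence directed soil spray after seeding, or sprayed postemergence over plants 2 to 10 cm tall at the one- to two-leaf stage. Evaluation after about 10 d compared treated with untreated controls, using a scale from 0 (no effect) to 100 (complete control).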

[2] = system: barnyardgrass (Echinochloa crus-galli); assay: Test A preemergence; details: Echinochloa crus-galli, pre-emergence, 240 h
Summary of the method: as §1

[3] = system: giant foxtail (Setaria faberii); assay: Test A preemergence; details: Setaria faberi, pre-emergence, 240 h
Summary of the method: as §1

[4] = system: pigweed (Amaranthus retroflexus); assay: Test A preemergence; details: Amaranthus retroflexus, pre-emergence, 240 h
[5] = system: ragweed (common ragweed, Ambrosia elatior); assay: Test A preemergence; details: Ambrosia artemisiifolia, pre-emergence, 240 h
Summary of the method: as §1

[6] = system: ryegrass, Italian (Italian ryegrass, Lolium multiflorum); assay: Test A preemergence; details: Lolium multiflorum, pre-emergence, 240 h
Summary of the method: as §1

[7] = system: Galium (catchweed bedstraw, Galium aparine); assay: Test A postemergence; details: Galium, post-emergence, 240 h, 125 g ai/ha, postemergence; visual injury after approximately 10 d; 0 to 100 scale (0 no effect, 100 complete control); read-out: Plant response rating, Galium
Summary of the method: as §1

Kochia (Kochia scoparia) [8] = assay: Test A postemergence; details: Bassia scoparia, post-emergence, 240 h, 125 g ai/ha, postemergence; visual injury after approximately 10 d; 0 to 100 scale (0 no effect, 100 complete control); read-out: Plant response rating, Kochia
Summary of the method: as §1

[9] = system: barnyardgrass (Echinochloa crus-galli); assay: Test A postemergence; details: Echinochloa crus-galli, post-emergence, 240 h, 125 g ai/ha, postemergence; visual injury after approximately 10 d; 0 to 100 scale (0 no effect, 100 complete control); read-out: Plant response rating, Barnyardgrass
Summary of the method: as §1

[10] = system: blackgrass (Alopecurus myosuroides); assay: Test A postemergence; details: Alopecurus myosuroides, post-emergence, 240 h, 125 g ai/ha, postemergence; visual injury after approximately 10 d; 0 to 100 scale (0 no effect, 100 complete control); read-out: Plant response rating, Blackgrass
Summary of the method: as §1

corn (Zea mays) = assay: Test A postemergence; details: Zea mays, post-emergence, 240 h, 125 g ai/ha, postemergence; visual injury after approximately 10 d; 0 to 100 scale (0 no effect, 100 complete control)
Summary of the method: as §1

[11] = system: giant foxtail (Setaria faberii); assay: Test A postemergence; details: Setaria faberi, post-emergence, 240 h, 125 g ai/ha, postemergence; visual injury after approximately 10 d; 0 to 100 scale (0 no effect, 100 complete control); read-out: Plant response rating, Foxtail, Giant
Summary of the method: as §1

[12] = system: pigweed (Amaranthus retroflexus); assay: Test A postemergence; details: Amaranthus retroflexus, post-emergence, 240 h, 125 g ai/ha, postemergence; visual injury after approximately 10 d; 0 to 100 scale (0 no effect, 100 complete control); read-out: Plant response rating, Pigweed
Summary of the method: as §1

[13] = system: ragweed (common ragweed, Ambrosia elatior); assay: Test A postemergence; details: Ambrosia artemisiifolia, post-emergence, 240 h, 125 g ai/ha, postemergence; visual injury after approximately 10 d; 0 to 100 scale (0 no effect, 100 complete control); read-out: Plant response rating, Ragweed
Summary of the method: as §1

[14] = system: ryegrass, Italian (Italian ryegrass, Lolium multiflorum); assay: Test A postemergence; details: Lolium multiflorum, post-emergence, 240 h, 125 g ai/ha, postemergence; visual injury after approximately 10 d; 0 to 100 scale (0 no effect, 100 complete control); read-out: Plant response rating, Ryegrass, Italian
Summary of the method: as §1

[15] = system: wheat (Triticum aestivum); assay: Test A postemergence; details: Triticum aestivum, post-emergence, 240 h, 125 g ai/ha, postemergence; visual injury after approximately 10 d; 0 to 100 scale (0 no effect, 100 complete control); read-out: Plant response rating, Wheat
Summary of the method: as §1

O=C1NC[C@H](c2ccc3c(c2)CCO3)[C@H]1C(=O)Nc1cccc(F)c1F [Compound 785]
90%: pest or weed control at 125 g/ha ([2]; 125 g ai/ha, preemergence, visual rating after approx. 10 d, 0 to 100 scale where 0 is no effect and 100 is complete control, read-out: Plant response rating, Barnyardgrass) | pest or weed control at 500 g/ha ([2]; 500 g ai/ha, Preemergence, visual injury vs untreated controls after approximately 10 d, read-out: Barnyardgrass plant response rating (0 to 100 scale where 0 is no effect and 100 is complete control)) | pest or weed control at 125 g/ha ([3]; 125 g ai/ha, preemergence, visual rating after approx. 10 d, 0 to 100 scale where 0 is no effect and 100 is complete control, read-out: Plant response rating, Foxtail, Giant) | pest or weed control at 500 g/ha ([3]; 500 g ai/ha, Preemergence, visual injury vs untreated controls after approximately 10 d, read-out: Foxtail, Giant plant response rating (0 to 100 scale where 0 is no effect and 100 is complete control)) | pest or weed control at 125 g/ha [9]
70%: pest or weed control at 125 g/ha [11]
40%: pest or weed control at 500 g/ha (Kochia (Kochia scoparia) [1]; 500 g ai/ha, Preemergence, visual injury vs untreated controls after approximately 10 d, read-out: Kochia plant response rating (0 to 100 scale where 0 is no effect and 100 is complete control)) | pest or weed control at 500 g/ha ([6]; 500 g ai/ha, Preemergence, visual injury vs untreated controls after approximately 10 d, read-out: Ryegrass, Italian plant response rating (0 to 100 scale where 0 is no effect and 100 is complete control))
50%: pest or weed control at 125 g/ha [7]
0%: pest or weed control at 125 g/ha ([4]; 125 g ai/ha, preemergence, visual rating after approx. 10 d, 0 to 100 scale where 0 is no effect and 100 is complete control, read-out: Plant response rating, Pigweed) | pest or weed control at 125 g/ha ([5]; 125 g ai/ha, preemergence, visual rating after approx. 10 d, 0 to 100 scale where 0 is no effect and 100 is complete control, read-out: Plant response rating, Ragweed) | pest or weed control at 500 g/ha ([5]; 500 g ai/ha, Preemergence, visual injury vs untreated controls after approximately 10 d, read-out: Ragweed plant response rating (0 to 100 scale where 0 is no effect and 100 is complete control)) | pest or weed control at 125 g/ha ([6]; 125 g ai/ha, preemergence, visual rating after approx. 10 d, 0 to 100 scale where 0 is no effect and 100 is complete control, read-out: Plant response rating, Ryegrass, Italian) | pest or weed control at 125 g/ha (Kochia (Kochia scoparia) [8]) | Corn plant response rating (crop injury, 0 = no effect, 100 = complete kill) at 125 g/ha (corn (Zea mays)) | pest or weed control at 125 g/ha [12] | pest or weed control at 125 g/ha [13] | plant injury at 125 g/ha [15]
30%: pest or weed control at 125 g/ha [14]
20%: pest or weed control at 125 g/ha (Kochia (Kochia scoparia) [1]; 125 g ai/ha, preemergence, visual rating after approx. 10 d, 0 to 100 scale where 0 is no effect and 100 is complete control, read-out: Plant response rating, Kochia) | pest or weed control at 500 g/ha ([4]; 500 g ai/ha, Preemergence, visual injury vs untreated controls after approximately 10 d, read-out: Pigweed plant response rating (0 to 100 scale where 0 is no effect and 100 is complete control)) | pest or weed control at 125 g/ha [10]

Reference: patent US12077503B2, “Substituted cyclic amides and their use as herbicides” (FMC CORPORATION, priority 2015, dated 2024)
